Structures can show the parent of a compound that is named as a salt.
System: phenylhydrazine (PHZ)-treated mice
Test: FF/Arf i.p. in PHZ-treated mice at sub-lethal dose of 60 mg/kg
Format: in vivo

SMILES: COc1ccc(C[C@@H](C)NC[C@H](O)c2ccc(O)c(NC=O)c2)cc1 [Arf, N-[2-hydroxy-5-[(1R)-1-hydroxy-2-[[(1R)-2-(4-methoxyphenyl)-1-methylethyl]amino]ethyl]phenyl]-formamide, (2R,3R)-2,3-dihydroxybutanedioate (1:1 salt)]
- transferrin receptor expression in CFU-e derived from BMPs (FIG. 39B): transferrin receptor expression is enhanced
- Hemoglobin (Hb) in peripheral blood (after 7 and 14 days of i.p., FIG. 35): increase Hemoglobin (Hb)
- RBC parameters (HCT % and RBCs) in peripheral blood (after 7 days of i.p., FIG. 34): increases RBC parameters
- LS-K and LSK cells in bone marrow progenitors (after 14 days of i.p., FIG. 36A-36B): increase LSK, LS-K, and mitochondrial activity
- mitochondrial membrane potential (TMRE staining) in bone marrow progenitors (after 14 days of i.p., FIG. 36C): increase LSK, LS-K, and mitochondrial activity
- megakaryocyte erythrocyte progenitors (MEP) in BM (after 14 days of i.p., FIG. 37A): increase megakaryocyte erythrocyte progenitors (MEP)
- body weights (i.p., PHZ 60 mg/kg, FIG. 32): enhances body weights
- platelets and WBCs in peripheral blood (i.p., PHZ 60 mg/kg, FIG. 33): do not affect platelets and WBCs

— patent US12697313B2, “Methods of treating anemia using formoterol or a pharmaceutically acceptable salt thereof” (Dana-Farber Cancer Institute, Inc., priority 2022, dated 2026)
